Target: T1, Adenosine receptor A1 (Cavia porcellus, UniProt P47745)
T1 sequence (P47745 whole entry): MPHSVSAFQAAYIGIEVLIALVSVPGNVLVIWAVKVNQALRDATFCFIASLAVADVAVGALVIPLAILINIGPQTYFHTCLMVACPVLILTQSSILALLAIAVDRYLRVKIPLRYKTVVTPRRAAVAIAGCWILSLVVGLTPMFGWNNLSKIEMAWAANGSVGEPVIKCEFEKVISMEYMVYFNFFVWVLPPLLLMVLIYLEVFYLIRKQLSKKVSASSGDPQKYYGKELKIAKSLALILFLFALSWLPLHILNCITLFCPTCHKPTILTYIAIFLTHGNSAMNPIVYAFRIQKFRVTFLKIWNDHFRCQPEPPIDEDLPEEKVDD
Test: ChEBML_29278
Excerpt: In vitro prolonging of the stimulus-QRS interval in guinea pig heart.

EC50: 25.1 µM
SMILES: CCCCCN=Nc1nc(N)c2ncn(C3O[C@H](CO)[C@@H](O)[C@H]3O)c2n1 (stereo partly specified)

Reference: BindingDB's records for doi:10.1021/jm00102a007 (University of South Florida, 1993)
